Measurements reported in PubChem BioAssay (NCI).
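Tested at 5 concentrations; 48 h exposure; 96-well plates; endpoints linearly interpolated, else capped at highest concentration. TGI: concentration producing complete growth inhibition.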

Experiments:
Test in all cases: inhibition of tumour cell growth, NCI panel, 48 h
CAKI-1 renal = system: CAKI-1 renal
HCC-2998 colon = system: HCC-2998 colon
HCT-116 colon = system: HCT-116 colon
HT29 colon = system: HT29 colon
KM12 colon = system: KM12 colon
MOLT-4 leukemia = system: MOLT-4 leukemia
NCI-H226 lung = system: NCI-H226 lung
NCI-H460 lung = system: NCI-H460 lung
OVCAR-4 ovarian = system: OVCAR-4 ovarian
OVCAR-5 ovarian = system: OVCAR-5 ovarian
SK-MEL-2 melanoma = system: SK-MEL-2 melanoma
SK-MEL-28 melanoma = system: SK-MEL-28 melanoma
TK-10 renal = system: TK-10 renal
MDA-MB-231 breast = system: MDA-MB-231 breast
PC-3 prostate = system: PC-3 prostate
T-47D breast = system: T-47D breast
BT-549 breast = system: BT-549 breast

Row | SMILES | TGI (CAKI-1 renal) | TGI (HCC-2998 colon) | TGI (HCT-116 colon) | TGI (HT29 colon) | TGI (KM12 colon) | TGI (MOLT-4 leukemia) | TGI (NCI-H226 lung) | TGI (NCI-H460 lung) | TGI (OVCAR-4 ovarian) | TGI (OVCAR-5 ovarian) | TGI (SK-MEL-2 melanoma) | TGI (SK-MEL-28 melanoma) | TGI (TK-10 renal) | TGI (MDA-MB-231 breast) | TGI (PC-3 prostate) | TGI (T-47D breast) | TGI (BT-549 breast)
1 | CCOC(=O)/C(=C/c1ccccc1)N(CC)CC | > 100 µM | > 100 µM | > 100 µM | > 100 µM | > 100 µM | > 100 µM | > 100 µM | > 100 µM | > 100 µM | > 100 µM | > 100 µM | > 100 µM | > 100 µM |  |  |  | 
2 | CN(C)CCSC(=Nc1ccccc1)n1cccc1 | > 100 µM |  | > 100 µM | > 100 µM | > 100 µM | > 100 µM | 75.7 µM | > 100 µM | > 100 µM | > 100 µM | > 100 µM | > 100 µM | > 100 µM |  |  |  | 
3 | N#CC(C(=S)Nc1ccccc1)=C1Nc2ccccc2N1 | > 10 µM | > 10 µM | > 10 µM |  | > 10 µM | > 10 µM | > 10 µM | > 10 µM | > 10 µM | > 10 µM | > 10 µM | > 10 µM | > 10 µM |  |  |  | 
4 | COc1cc(CO)cc2c1[nH]c1ccccc12 |  | > 25 µM | > 25 µM | > 25 µM | > 25 µM | > 25 µM | 5.27 µM | > 25 µM | > 25 µM | > 25 µM | > 25 µM | > 25 µM | > 25 µM |  |  |  | 
5 | CC(C)C1COC(C(C)(C)C2=N[C@@H](C(C)C)CO2)=N1 (stereo partly specified) |  | > 100 µM | > 100 µM | > 100 µM | > 100 µM | > 100 µM | > 100 µM | > 100 µM | > 100 µM | > 100 µM | > 100 µM | > 100 µM | > 100 µM |  |  |  | 
6 | CCOC(=O)c1nc2ccc(C(F)(F)F)cc2nc1NCc1ccc(F)cc1 | > 100 µM | 78.3 µM | > 100 µM | > 100 µM | > 100 µM | > 100 µM | > 100 µM | 75.4 µM | 90.9 µM | > 100 µM | > 100 µM | > 100 µM | > 100 µM | > 100 µM | > 100 µM | 84.8 µM | 
7 | CCOc1cc2cnc3c4cc(OC)c(OC)cc4ccc3c2cc1OC | > 100 µM | > 100 µM | > 100 µM | > 100 µM | > 100 µM | > 100 µM | > 100 µM | > 100 µM | > 100 µM | > 100 µM | > 100 µM | > 100 µM | > 100 µM |  |  |  | 
8 | COc1cccc(C=C(C#N)C#N)c1OC | > 100 µM | > 100 µM | > 100 µM | > 100 µM | > 100 µM | > 100 µM | > 100 µM | > 100 µM | > 100 µM | > 100 µM |  | > 100 µM | > 100 µM |  | > 100 µM |  | > 100 µM
9 | O[C@]12c3ccccc3C1CCCC2N1CCOCC1 (stereo partly specified) |  |  | > 100 µM | > 100 µM | > 100 µM | > 100 µM | > 100 µM | > 100 µM | > 100 µM |  | > 100 µM | > 100 µM | > 100 µM |  |  |  | 
10 | COc1ccc(C2S/C(=C\c3ccc([N+](=O)[O-])cc3)C(=O)N2NC(=O)Cc2ccccc2)cc1 (stereo unspecified) | > 100 µM |  | > 100 µM | > 100 µM | > 100 µM | > 100 µM | > 100 µM | > 100 µM | > 100 µM | > 100 µM | > 100 µM | > 100 µM | > 100 µM |  |  |  | 
11 | O=[N+]([O-])c1ccc2nc(/C=C(\O)c3ccccc3)c(NC34CC5CC(CC(C5)C3)C4)nc2c1 | > 10 µM | > 10 µM |  | > 10 µM | > 10 µM |  | > 10 µM | > 10 µM | > 10 µM | > 10 µM | > 10 µM | > 10 µM | > 10 µM | > 10 µM | > 10 µM | > 10 µM | 
12 | CCCCCCCCCc1cc(=O)c2c(O)cc(O)cc2o1 | > 100 µM | 35.8 µM | 47.6 µM | 34.4 µM | 21.3 µM | 22.3 µM | 36 µM | 50.6 µM | 40.9 µM | 32 µM | 34.3 µM | 52.2 µM | 34.5 µM | > 100 µM | 32.1 µM | 51.1 µM | 
13 | CC(=O)NC(CCCCN(Cc1ccccc1)C(=O)N(C)N=O)C(=O)NCc1ccccc1 (stereo unspecified) | > 100 µM | > 100 µM | > 100 µM | > 100 µM | > 100 µM | > 100 µM | > 100 µM | > 100 µM | > 100 µM | > 100 µM | > 100 µM | > 100 µM | > 100 µM |  |  |  | 
14 | CN(C)c1cccc2c(S(=O)(=O)NCCCNCCN)cccc12 | > 100 µM | 62.8 µM | > 100 µM | > 100 µM | > 100 µM | 41.1 µM | > 100 µM | > 100 µM | > 100 µM | > 100 µM | 86.7 µM | > 100 µM |  | > 100 µM | > 100 µM | > 100 µM | 
15 | Cc1ccc([N+](=O)[O-])cc1NC(=O)/C(CC(=O)c1sc(C(N)=S)nc1C)=N\N | > 100 µM | > 100 µM | > 100 µM | > 100 µM | > 100 µM | > 100 µM |  | > 100 µM | > 100 µM | > 100 µM | > 100 µM | > 100 µM | > 100 µM |  |  |  | 
16 | COc1cc2c(cc1OC)C(Cc1cc(Br)c(OC)c(OC)c1)=[N+](C)CC2 | > 100 µM | > 100 µM | > 100 µM | > 100 µM | > 100 µM |  | > 100 µM | > 100 µM | > 100 µM | > 100 µM | > 100 µM | > 100 µM | > 100 µM |  |  |  | 
17 | CN1C(CC(O)c2ccccc2)CCCC1CC(O)(c1ccccc1)c1ccccc1 (stereo unspecified) | > 100 µM | 37.8 µM | 29.1 µM | 31.8 µM | 36.6 µM | 54.9 µM | 38.5 µM |  |  | 32.7 µM |  | 30.9 µM | 38.8 µM | 48.8 µM | 34.7 µM | 52.7 µM | 
